The values that follow come from PubChem BioAssay AID1259407 (Chemical Carcinogenesis Research Information System (CCRIS), 2018).

This data set concerns CCRIS mutagenicity, Ames/micronucleus/aberration tests. Description: CCRIS mutagenicity studies.
Where [1] appears, read: Test System: AMES SALMONELLA TYPHIMURIUM, Strain/Indicator: TA97, Metabolic Activation: HAMSTER, LIVER, S-9, AROCLOR 1254 (10 OR 30%), Method: PREINCUBATION
The mark [2] stands for this setting: Test System: AMES SALMONELLA TYPHIMURIUM, Strain/Indicator: TA97, Metabolic Activation: NONE, Method: PREINCUBATION
Where [3] appears, read: Test System: AMES SALMONELLA TYPHIMURIUM, Strain/Indicator: TA97, Metabolic Activation: RAT, LIVER, S-9, AROCLOR 1254 (10 OR 30%), Method: PREINCUBATION
Where [4] appears, read: Test System: AMES SALMONELLA TYPHIMURIUM, Strain/Indicator: TA98, Metabolic Activation: NONE, Method: PREINCUBATION
[5] abbreviates: Test System: AMES SALMONELLA TYPHIMURIUM, Strain/Indicator: TA98, Metabolic Activation: RAT, LIVER, S-9, AROCLOR 1254 (10 OR 30%), Method: PREINCUBATION
The mark [6] stands for this setting: Test System: AMES SALMONELLA TYPHIMURIUM, Strain/Indicator: TA100, Metabolic Activation: HAMSTER, LIVER, S-9, AROCLOR 1254 (10 OR 30%), Method: PREINCUBATION
Setting [7] is: Test System: AMES SALMONELLA TYPHIMURIUM, Strain/Indicator: TA100, Metabolic Activation: NONE, Method: PREINCUBATION
Setting [8] is: Test System: AMES SALMONELLA TYPHIMURIUM, Strain/Indicator: TA100, Metabolic Activation: RAT, LIVER, S-9, AROCLOR 1254 (10 OR 30%), Method: PREINCUBATION
The mark [9] stands for this setting: Test System: AMES SALMONELLA TYPHIMURIUM, Strain/Indicator: TA1535, Metabolic Activation: HAMSTER, LIVER, S-9, AROCLOR 1254 (10 OR 30%), Method: PREINCUBATION
Where [10] appears, read: Test System: AMES SALMONELLA TYPHIMURIUM, Strain/Indicator: TA1535, Metabolic Activation: NONE, Method: PREINCUBATION
The mark [11] stands for this setting: Test System: AMES SALMONELLA TYPHIMURIUM, Strain/Indicator: TA1535, Metabolic Activation: RAT, LIVER, S-9, AROCLOR 1254 (10 OR 30%), Method: PREINCUBATION

Calls of active or inactive are those of the source. The rule behind the calls is not given here.

Consider `Cc1noc(NS(=O)(=O)c2ccc(N)cc2)c1C`, for which the mutagenic call by setting is: (End Point: IN VITRO CHROMOSOMAL ABERRATIONS, Test System: CHO CELLS, Metabolic Activation: NONE) “inactive; negative”; (End Point: IN VITRO CHROMOSOMAL ABERRATIONS, Test System: CHO CELLS, Metabolic Activation: RAT, LIVER, S-9, AROCLOR 1254) “inactive; negative”; under setting [1], “inactive; negative”; under setting [2], “inactive; negative”; under setting [3], “inactive; negative”; (Test System: AMES SALMONELLA TYPHIMURIUM, Strain/Indicator: TA98, Metabolic Activation: HAMSTER, LIVER, S-9, AROCLOR 1254 (10 OR 30%), Method: PREINCUBATION) “inactive; negative”. Further, the mutagenic call reads like this: under setting [4], “inactive; negative”; under setting [5], “inactive; negative”; under setting [6], “inactive; negative”; under setting [7], “inactive; negative”; under setting [8], “inactive; negative”; under setting [9], “inactive; negative”. The mutagenic call runs as follows: under setting [10], “inactive; negative”; under setting [11], “inactive; negative”; (Test System: E. COLI, Strain/Indicator: WP2 UVRA, Metabolic Activation: HAMSTER, LIVER, S-9, AROCLOR 1254, Method: STANDARD PLATE) “inactive; negative”; (Test System: E. COLI, Strain/Indicator: WP2 UVRA, Metabolic Activation: HAMSTER, LIVER, S-9, Method: STANDARD PLATE) “inactive; negative”; (Test System: E. COLI, Strain/Indicator: WP2 UVRA, Metabolic Activation: MOUSE, LIVER, S-9, AROCLOR 1254, Method: STANDARD PLATE) “inactive; negative”; (Test System: E. COLI, Strain/Indicator: WP2 UVRA, Metabolic Activation: MOUSE, LIVER, S-9, Method: STANDARD PLATE) “inactive; negative”. Besides, the mutagenic call was “inactive; negative” (Test System: E. COLI, Strain/Indicator: WP2 UVRA, Metabolic Activation: NONE, Method: STANDARD PLATE); “inactive; negative” (Test System: E. COLI, Strain/Indicator: WP2 UVRA, Metabolic Activation: RAT, LIVER, S-9, AROCLOR 1254, Method: STANDARD PLATE); “inactive; negative” (Test System: E. COLI, Strain/Indicator: WP2 UVRA, Metabolic Activation: RAT, LIVER, S-9, Method: STANDARD PLATE).

Turning to `O=C1C=Cc2c(ccc3c2ccc2ccccc23)C1=O`, the mutagenic call runs as follows: (Test System: AMES SALMONELLA TYPHIMURIUM, Strain/Indicator: TA98, Metabolic Activation: NONE, Method: STANDARD PLATE) “inactive; negative”; (Test System: AMES SALMONELLA TYPHIMURIUM, Strain/Indicator: TA100, Metabolic Activation: RAT, LIVER, S-9, AROCLOR 1254, Method: STANDARD PLATE) “inactive; negative”.

As to `CC(C)C(N)C(=O)O` (stereo unspecified), the mutagenic call (Test System: AMES SALMONELLA TYPHIMURIUM, Strain/Indicator: TA98, Metabolic Activation: RAT LIVER S-9, CHLOROPHENE, Method: STANDARD PLATE (COMPOUND HEATED AT 250 DEGREES CELSIUS FOR 20 MIN)) was “inactive; negative”.

Take `c1ccc2c(c1)c1c(c3c4ccccc4c4ccccc4c23)O1`: the mutagenic call was “active; positive” (Test System: AMES SALMONELLA TYPHIMURIUM, Strain/Indicator: TA98, Metabolic Activation: NONE, Method: PREINCUBATION (KCL-CONTAINING MEDIUM)); “active; positive” (Test System: AMES SALMONELLA TYPHIMURIUM, Strain/Indicator: TA98, Metabolic Activation: NONE, Method: PREINCUBATION (KCL-FREE MEDIUM)); “active; positive” (Test System: AMES SALMONELLA TYPHIMURIUM, Strain/Indicator: TA100, Metabolic Activation: NONE, Method: PREINCUBATION (KCL-FREE OR KCL-CONTAINING MEDIA)).

With `CN(CCC#N)c1ccc(N=Nc2ccc3ncsc3c2)cc1`, the mutagenic call is “active; positive” (Test System: AMES SALMONELLA TYPHIMURIUM, Strain/Indicator: TA98, Metabolic Activation: RAT, LIVER, S-9, AROCLOR, Method: PREINCUBATION) and “active; positive” (Test System: AMES SALMONELLA TYPHIMURIUM, Strain/Indicator: TA98, Metabolic Activation: RAT, LIVER, S-9, AROCLOR, Method: STANDARD PLATE).

Regarding `Oc1cccc2cc3c4ccccc4c4ccccc4c3cc12`, for the setting “Test System: AMES SALMONELLA TYPHIMURIUM, Strain/Indicator: TA100, Metabolic Activation: RAT, LIVER, S-9, AROCLOR 1254, Method: PREINCUBATION”, the mutagenic call was “active; positive”.

Regarding `Cc1cc2cccc3ccc4cc5ccccc5c1c4c32`, the mutagenic call was “active; positive” (Test System: AMES SALMONELLA TYPHIMURIUM, Strain/Indicator: TA100, Metabolic Activation: RAT, INTACT HEPATOCYTES, AROCLOR 1254, Method: PREINCUBATION) and “active; positive” (Test System: AMES SALMONELLA TYPHIMURIUM, Strain/Indicator: TA100, Metabolic Activation: RAT, NADPH-FORTIFIED HOMOGENIZED HEPATOCYTES, AROCLOR 1254, Method: PREINCUBATION).

On to `CC(=O)OCc1ccc2ccc3cccc4ccc1c2c34`, for which the mutagenic call under setting [4] was “active; positive”.

Regarding `Clc1ccc2ccccc2c1`, the mutagenic call is “inactive; negative” under setting [1]; “inactive; negative” under setting [2]; “inactive; negative” under setting [3]; “inactive; negative” (Test System: AMES SALMONELLA TYPHIMURIUM, Strain/Indicator: TA98, Metabolic Activation: HAMSTER, LIVER, S-9, AROCLOR 1254 (10%), Method: PREINCUBATION); “inactive; negative” (Test System: AMES SALMONELLA TYPHIMURIUM, Strain/Indicator: TA98, Metabolic Activation: HAMSTER, LIVER, S-9, AROCLOR 1254 (30%), Method: PREINCUBATION); “inactive; negative” under setting [4]. The mutagenic call under setting [5] is “inactive; negative”; the mutagenic call under setting [6] was “inactive; negative”; the mutagenic call under setting [7] was “inactive; negative”; the mutagenic call under setting [8] was “inactive; negative”; the mutagenic call under setting [9] was “inactive; negative”; the mutagenic call under setting [10] was “inactive; negative”. Besides, under setting [11], the mutagenic call was “inactive; negative”.
